{"source": "patent US8148391B2", "about": "(Cephalon, Inc., priority 2006, dated 2012)", "key": {"[1]": {"biological_target": "T1, baculovirus-expressed ALK (Homo sapiens, UniProt Q9UM73)", "T1 construct": "host or cells: baculovirus expression system", "T1 sequence (Q9UM73 19-1620)": "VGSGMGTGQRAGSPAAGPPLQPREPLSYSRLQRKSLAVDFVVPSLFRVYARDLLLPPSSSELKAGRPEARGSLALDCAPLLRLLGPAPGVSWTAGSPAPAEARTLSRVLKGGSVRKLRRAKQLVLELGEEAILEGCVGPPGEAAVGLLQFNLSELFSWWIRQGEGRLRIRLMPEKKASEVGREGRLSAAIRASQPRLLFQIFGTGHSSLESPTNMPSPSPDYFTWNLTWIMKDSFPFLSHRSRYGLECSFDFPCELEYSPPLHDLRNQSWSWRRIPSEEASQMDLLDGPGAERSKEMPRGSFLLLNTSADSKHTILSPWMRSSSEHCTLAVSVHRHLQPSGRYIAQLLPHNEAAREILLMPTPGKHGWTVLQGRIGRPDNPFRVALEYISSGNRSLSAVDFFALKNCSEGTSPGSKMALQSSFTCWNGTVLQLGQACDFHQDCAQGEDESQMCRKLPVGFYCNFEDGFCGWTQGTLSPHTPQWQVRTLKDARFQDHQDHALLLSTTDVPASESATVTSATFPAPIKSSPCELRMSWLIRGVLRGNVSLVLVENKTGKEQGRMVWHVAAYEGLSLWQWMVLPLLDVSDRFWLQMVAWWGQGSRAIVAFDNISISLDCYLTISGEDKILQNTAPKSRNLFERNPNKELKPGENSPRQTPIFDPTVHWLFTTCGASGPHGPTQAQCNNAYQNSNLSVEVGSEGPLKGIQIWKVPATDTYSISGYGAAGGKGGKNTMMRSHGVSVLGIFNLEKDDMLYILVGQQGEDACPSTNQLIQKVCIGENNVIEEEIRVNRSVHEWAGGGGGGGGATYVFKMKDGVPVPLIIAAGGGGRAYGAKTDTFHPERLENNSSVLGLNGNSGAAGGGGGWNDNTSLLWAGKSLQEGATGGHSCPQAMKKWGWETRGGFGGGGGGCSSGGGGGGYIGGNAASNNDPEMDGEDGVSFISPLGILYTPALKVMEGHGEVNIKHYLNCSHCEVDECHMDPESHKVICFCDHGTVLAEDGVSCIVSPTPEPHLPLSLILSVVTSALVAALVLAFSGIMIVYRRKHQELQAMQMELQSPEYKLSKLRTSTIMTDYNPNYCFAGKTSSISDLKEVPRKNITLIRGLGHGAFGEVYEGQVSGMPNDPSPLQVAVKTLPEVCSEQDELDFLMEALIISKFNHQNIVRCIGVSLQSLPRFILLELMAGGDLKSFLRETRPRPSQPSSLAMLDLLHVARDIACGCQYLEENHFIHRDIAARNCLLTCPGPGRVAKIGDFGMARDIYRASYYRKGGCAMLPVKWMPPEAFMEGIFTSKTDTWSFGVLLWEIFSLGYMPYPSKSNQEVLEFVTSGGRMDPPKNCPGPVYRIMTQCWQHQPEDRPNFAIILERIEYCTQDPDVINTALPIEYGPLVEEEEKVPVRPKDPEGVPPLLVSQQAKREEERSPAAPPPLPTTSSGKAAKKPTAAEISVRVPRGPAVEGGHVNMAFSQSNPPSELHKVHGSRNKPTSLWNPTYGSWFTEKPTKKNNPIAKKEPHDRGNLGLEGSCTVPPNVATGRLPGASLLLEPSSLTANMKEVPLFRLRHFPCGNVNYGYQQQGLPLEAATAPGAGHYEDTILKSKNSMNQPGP", "test": "ALK Kinase Assay (ELISA-type, time-resolved fluorescence)", "assay_type": "biochemical", "outline": "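Substrate coating: phospholipase C-γ, 10 μg/mL in TBS. Kinase step: 30 ng/ml ALK, 15 min, 37° C. Detection and analysis: Eu-N1 PT66 antibody, with IC50 fitted as a sigmoidal variable-slope dose-response curve.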"}, "[2]": {"biological_target": "T2, c-Met (cytoplasmic domain) (Homo sapiens, UniProt P08581)", "T2 construct": "10 ng/mL c-Met (cytoplasmic domain, Invitrogen Corporation #PV3143); purchased Invitrogen Corporation PV3143", "T2 sequence (P08581 956-1390 limits assumed)": "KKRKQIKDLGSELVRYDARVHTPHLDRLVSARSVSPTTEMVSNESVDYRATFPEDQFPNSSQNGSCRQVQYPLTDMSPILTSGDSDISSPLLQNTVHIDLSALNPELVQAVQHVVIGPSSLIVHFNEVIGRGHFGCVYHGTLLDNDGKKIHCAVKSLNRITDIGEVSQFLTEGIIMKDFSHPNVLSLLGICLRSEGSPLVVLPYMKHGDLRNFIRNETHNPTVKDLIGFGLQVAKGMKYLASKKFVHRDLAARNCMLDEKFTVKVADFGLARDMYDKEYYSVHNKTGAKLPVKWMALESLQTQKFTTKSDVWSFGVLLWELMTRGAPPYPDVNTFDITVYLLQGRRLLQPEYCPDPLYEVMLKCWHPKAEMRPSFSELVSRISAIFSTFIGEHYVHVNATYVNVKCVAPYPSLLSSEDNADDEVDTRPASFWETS", "test": "c-Met Kinase Assay (same methods as for ALK, with modifications)", "assay_type": "biochemical", "outline": "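This plate-based kinase format uses immobilized phospholipase C-γ as substrate, phosphorylated by c-Met cytoplasmic domain (10 ng/mL) at 37° C for 15 minutes.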"}, "[3]": {"settings": "ALK kinase inhibition, 1 μM ATP, read-out: ALK Activity"}, "[4]": {"settings": "c-Met kinase inhibition, 1 μM ATP, read-out: cMet Activity"}, "[5]": {"settings": "ALK kinase inhibition, 1 μM ATP (Km level), read-out: ALK Activity"}, "[6]": {"settings": "c-Met kinase inhibition, 1 μM ATP (Km level), read-out: cMet Activity"}, "[7]": {"settings": "1 μM ATP (Km level), read-out: ALK Activity (ALK Kinase Inhibition, IC50)"}, "[8]": {"settings": "1 μM ATP (Km level), read-out: cMet Activity (c-Met Kinase Inhibition, IC50)"}}, "note": "Like-named read-outs stand apart in the source and are kept apart here.", "data": [{"smiles": "CN1C(=O)OCCc2cc(Nc3ncc(Cl)c(Nc4ccccc4OCC#N)n3)ccc21", "note": "[Example 1748, {2-[5-chloro-2-(5-methyl-6-oxo-5,6,8,9-tetrahydro-7-oxa-5-aza-benzocyclohepten-2-ylamino)-pyrimidin-4-ylamino]-phenoxy}-acetonitrile]", "values": [{"measurement": "IC50", "setting": "[1]; [3]", "result": "< 0.1", "unit": "µM"}, {"measurement": "IC50", "setting": "[2]; [4]", "result": "< 0.1", "unit": "µM"}]}, {"smiles": "CCN1CCc2ccc(Nc3ncc(C)c(Nc4ccccc4C(=O)NC)n3)cc2CC1", "note": "[Example 191, 2-[2-(3-Ethyl-2,3,4,5-tetrahydro-1H-benzo[d]azepin-7-ylamino)-5-methyl-pyrimidin-4-ylamino]-N-methyl-benzamide]", "values": [{"measurement": "IC50", "setting": "[1]; [5]", "result": "< 0.1", "unit": "µM"}, {"measurement": "IC50", "setting": "[2]; [6]", "result": "< 0.1", "unit": "µM"}]}, {"smiles": "COCCN1CCc2cc(Nc3ncc(Cl)c(N[C@@H]4CCCC[C@H]4N(C)S(C)(=O)=O)n3)c(OC)cc2CC1", "note": "[Example 1676, N-((1R,2R)-2-{5-Chloro-2-[8-methoxy-3-(2-methoxy-ethyl)-2,3,4,5-tetrahydro-1H-benzo[d]azepin-7-ylamino]-pyrimidin-4-ylamino}-cyclohexyl)-N-methyl-methanesulfonamide]", "values": [{"measurement": "IC50", "setting": "[1]; [3]", "result": "< 0.1", "unit": "µM"}, {"measurement": "IC50", "setting": "[2]; [4]", "result": "> 10", "unit": "µM"}]}, {"smiles": "CNC(=O)c1ccccc1Nc1nc(Nc2cc3c(cc2OC)CCC(NCCOC)CC3)ncc1Cl", "note": "(stereo not shown) [Example 1086, 2-{5-Chloro-2-[3-methoxy-7-(2-methoxy-ethylamino)-6,7,8,9-tetrahydro-5H-benzocyclohepten-2-ylamino]-pyrimidin-4-ylamino}-N-methyl-benzamide]", "values": [{"measurement": "IC50", "setting": "[1]; 1 μM ATP (Km level), 30 ng/ml ALK, 37° C., 15 minutes, read-out: ALK Activity (ALK kinase inhibition, IC50 class)", "result": "< 0.1", "unit": "µM"}, {"measurement": "IC50", "setting": "[2]; 1 μM ATP (Km level), 10 ng/mL c-Met, read-out: cMet Activity (c-Met kinase inhibition, IC50 class)", "result": "0.1 to 1", "unit": "µM"}]}, {"smiles": "CNC(=O)c1ccccc1Nc1nc(Nc2ccc3c(c2)CNCCN3C)ncc1Cl", "note": "[Example 420, 2-[5-Chloro-2-(1-methyl-2,3,4,5-tetrahydro-1H-benzo[e][1,4]diazepin-7-ylamino)-pyrimidin-4-ylamino]-N-methylbenzamide]", "values": [{"measurement": "IC50", "setting": "[1]; [5]", "result": "< 0.1", "unit": "µM"}, {"measurement": "IC50", "setting": "[2]; [6]", "result": "< 0.1", "unit": "µM"}]}, {"smiles": "CC(=O)c1ccccc1Nc1nc(Nc2ccc3c(c2)CCCC(=O)N3C)ncc1Cl", "note": "[Example 351, 7-[4-(2-Acetyl-phenylamino)-5-chloro-pyrimidin-2-ylamino]-1-methyl-1,3,4,5-tetrahydro-benzo[b]azepin-2-one]", "values": [{"measurement": "IC50", "setting": "[1]; [5]", "result": "< 0.1", "unit": "µM"}, {"measurement": "IC50", "setting": "[2]; [6]", "result": "< 0.1", "unit": "µM"}]}, {"smiles": "COc1cc2c(cc1Nc1ncc(Cl)c(Nc3ccc(N4CCN(C)CC4)c(OC)c3)n1)CCN(CC(=O)N(C)C)CC2", "note": "[Example 804, 2-(7-{5-Chloro-4-[3-methoxy-4-(4-methyl-piperazin-1-yl)-phenylamino]-pyrimidin-2-ylamino}-8-methoxy-1,2,4,5-tetrahydro-benzo[d]azepin-3-yl)-N,N-dimethyl-acetamide]", "values": [{"measurement": "IC50", "setting": "[1]; [7]", "result": "< 0.1", "unit": "µM"}, {"measurement": "IC50", "setting": "[2]; [8]", "result": "> 10", "unit": "µM"}]}, {"smiles": "C#CCNC(=O)c1cccc(F)c1Nc1nc(Nc2ccc3c(c2)N(CC)C(=O)CN(C(=O)OCC)C3)ncc1Cl", "note": "[Example 1876, 8-[5-Chloro-4-(2-fluoro-6-prop-2-ynylcarbamoyl-phenylamino)-pyrimidin-2-ylamino]-1-ethyl-2-oxo-1,2,3,5-tetrahydro-benzo[e][1,4]diazepine-4-carboxylic acid ethyl ester]", "values": [{"measurement": "IC50", "setting": "[1]; [5]", "result": "0.1 to 1", "unit": "µM"}, {"measurement": "IC50", "setting": "[2]; [6]", "result": "< 0.1", "unit": "µM"}]}, {"smiles": "CCN1CCN(CC)c2cc(Nc3ncc(Cl)c(N[C@H]4[C@@H]5CC[C@@H](C5)[C@H]4C(N)=O)n3)ccc2C1", "note": "[Example 717, (2-exo,3-exo)-3-[5-Chloro-2-(1,4-diethyl-2,3,4,5-tetrahydro-1H-1,4-benzodiazepin-8-ylamino)-pyrimidin-4-ylamino]bicyclo[2.2.1]heptane-2-carboxylic acid amide]", "values": [{"measurement": "IC50", "setting": "[1]; [7]", "result": "< 0.1", "unit": "µM"}, {"measurement": "IC50", "setting": "[2]; [8]", "result": "1 to 10", "unit": "µM"}]}, {"smiles": "CCN1CCCOc2cc(Nc3ncc(Cl)c(Nc4ccc(N5CCOCC5)cc4OC)n3)ccc21", "note": "[Example 1694, 5-Chloro-N*2*-(9-ethyl-6,7,8,9-tetrahydro-5-oxa-9-aza-benzocyclohepten-3-yl)-N*4*-(2-methoxy-4-morpholin-4-yl-phenyl)-pyrimidine-2,4-diamine]", "values": [{"measurement": "IC50", "setting": "[1]; [3]", "result": "< 0.1", "unit": "µM"}, {"measurement": "IC50", "setting": "[2]; [4]", "result": "1 to 10", "unit": "µM"}]}, {"smiles": "CNC(=O)c1cccc(F)c1Nc1nc(Nc2ccc3c(c2)N(CCOC)C(=O)CCC3)ncc1C(F)(F)F", "note": "[Example 926, 3-Fluoro-2-{2-[1-(2-methoxy-ethyl)-2-oxo-2,3,4,5-tetrahydro-1H-benzo[b]azepin-8-ylamino]-5-trifluoromethyl-pyrimidin-4-ylamino}-N-methyl-benzamide]", "values": [{"measurement": "IC50", "setting": "[1]; [7]", "result": "< 0.1", "unit": "µM"}, {"measurement": "IC50", "setting": "[2]; [8]", "result": "< 0.1", "unit": "µM"}]}]}
